In patent US20220380331A1, “TREATMENT OF CONDITIONS OF THE NERVOUS SYSTEM” (priority 2019, published 2022):

Tests used:
spinal cord injury = assay: 8 weeks PNNi with sustained rehabilitation after spinal cord injury, hindlimb motor recovery; assay type: in vivo, rat; details: terminated 2-3 weeks before end, continued rehabilitative training
Description: FIG. […]): Limiting PNNi administration alongside sustained rehabilitation allows further hindlimb (HL) motor recovery. […] Bar graph showing the percentage of animals that were able to achieve forelimb-hindlimb (FL-HL) coordination at 9 weeks post-injury (WPI) at the end of PNNi administration, 10 and 12 WPI (B). […] (For groups, n=10 and 9 for 8 week PNNi and 8 week PNNi+T, respectively. Statistics, A, C-E: two-way mixed factorial ANOVA; significance levels: *p<0.05 **p<0.01 and ***p<0.001. A, C, D: Error bars are ±SEM.) Training was comprised of distributed practice quadrupedal interval treadmill training to provide task-specific rehabilitation. The first session commenced 7 days post injury (DPI) following locomotor behavioural tests described below. Daily training consisted of 10 minutes on the treadmill, followed by a 10 minute break before a final 10 minute session on the treadmill. Rats were trained five times a week at the maximal speed that they could maintain consecutive stepping for each 10-minute session on the treadmill. In order to enhance plasticity for effective functional recovery, we administer PNNi for 8 weeks in combination with 11 weeks of rehabilitation. Limiting PNNi administration alongside sustained rehabilitation allows further hindlimb (HL) motor but not sensory recovery (FIG. 12). […]

PNN-HEK293 cells = assay: Immunocytochemistry of PNN formation (WFA) with PNNi analogues; assay type: cell-based, human
Method: To compare the efficacy of PNNi, JD009, and JD013 in reducing PNN formation, immunocytochemistry was conducted using the N-acetylgalactosamine-binding lectin WFA to label PNNs. PNN-HEK293 cells were exposed to 0.5 mM and 1 mM of the compounds for 3 days in vitro. […] Quantification of WFA fluorescence intensity per cell was derived in matched regions of interest (ROI) and normalising overall WFA fluorescence intensity to cell number.

[1] = system: locomotor function of intact rats; details: female, Lister Hooded, rat, in vivo, 10 days
Description: Firstly, the inventors questioned whether PNN removal throughout the CNS would affect normal sensation and motor functions. To investigate this, adult female Lister Hooded rats (n=11) were given ten days of oral PNNi treatment and subjected to routine behavioural testing.

PNN^+HEK cells = assay: Removal of PNNs in vitro in PNN+HEK cell model (WFA staining); assay type: cell-based, human
Description: A previously developed human embryonic kidney 293T (HEK) cell model, engineered to express the essential ECM components (hyaluronan synthase 3 (HAS-3) and HAPLN-1) required to induce the formation of a pericellular PNN-like structure (PNN^+HEK cells) (Kwok et al., 2010), was used to investigate the efficacy of PNNi in removing PNNs in vitro (FIG. 9A-I).

[2] = system: HL sensory function after spinal cord injury; assay: Von Frey assay (50% withdrawal threshold) in spinal cord injured rats; assay type: in vivo, rat
Method: Changes to HL sensory function was assessed using von Frey methodologies to look for hyperalgesia and neuropathic pain. Four animals at a time were acclimatised to Perspex cages with a wire mesh bottom (FIG. 3) for approximately fifteen to twenty minutes before the test began and until general movement and grooming activities stopped. Von Frey filaments (Touch Test™ Sensory Evaluator Kit of 20; #39337500; Leica Biosystems, Milton Keynes, England FIG. 3C) were depressed through the mesh-bottomed cage against the more sensitive plantar arch of the HL footpads where withdrawal of the limb was counted as a positive result. Flinching was also seen as a positive response whereas walking was an ambiguous response requiring retesting after an appropriate delay. The left hindpaw and right hindpaw of all animals were performed in series to provide a sufficient interval between stimuli.

mouse = details: in vivo, po; cited from earlier work

Compound: Cc1cc(=O)oc2cc(O)ccc12 [PNNi, 4-methylumbelliferone]
- hindlimb (HL) motor recovery (spinal cord injury): a further HL improvement was observed
- PNN morphology and expression (WFA fluorescence intensity per cell) (PNN-HEK293 cells; 0.5 mM and 1 mM, 3 days in vitro): insufficient to cause substantial changes in PNN morphology and expression
- PNN morphology and expression (WFA staining intensity) (PNN-HEK293 cells; 1 mM and 2 mM (FIG. 14 legend)): insufficient to cause substantial changes in PNN morphology and expression
- FL correct steps [1]: 94.4±0.56%
- FL missed steps [1]: 1.13±0.24%
- FL slipped steps [1]: 4.35±0.54%
- HL correct stepping on the horizontal ladder [1]: approximately 92.7±0.82%
- HL misses on the horizontal ladder [1]: 1.92±0.41%
- HL slips on the horizontal ladder [1]: 5.43±0.70%
- WFA-positive staining removed (PNN^+HEK cells; two days of treatment, 0.5 mM or 1.0 mM): 86.4±4.47%
- staining intensity recovered, of baseline lectin binding (PNN^+HEK cells; within three days post-treatment): 43.6±14.6%
- L-R average 50% withdrawal threshold, plantar hindpaws ([2]; 8 week PNNi with or without training, 9 and 12 WPI): did not show hyperalgesia
- tactile sensitivity using von Frey hair test ([2]; treatment groups after T9 contusion injury, n=11): did not show any difference
- lethal dose (mouse): 7500 mg/kg
